The results in this text go back to paper doi:10.1101/2020.02.10.936898v1 (biorxiv, 2020).

Some results are limits rather than exact numbers.

For the experiment, the target named is SARS-CoV M^pro (Severe acute respiratory syndrome-related coronavirus, UniProt P0C6X7). The experiment is described as follows: biochemical. It is filed as biochemical.
In general, IC50 refers to the concentration needed to halve the response being measured. A higher IC50 goes with a need for much substance. Turning to `CC(C)(C)OC(=O)N[C@@H](C[C@@H]1CCNC1=O)C(=O)C(=O)NCc1ccccc1` [11f, tert-Butyl ((S)-4-(benzylamino)-3,4-dioxo-1-((S)-2-oxopyrrolidin-3-yl)butan-2-yl)carbamate], the IC50 is over 50000 nM.

Consider `C#CC[C@H](NC(=O)/C=C/c1ccccc1)C(=O)N[C@@H](C[C@@H]1CCNC1=O)C(=O)C(=O)NCc1ccccc1` [11p, (S)-N-((S)-4-(benzylamino)-3,4-dioxo-1-((S)-2-oxopyrrolidin-3-yl)butan-2-yl)-2-cinnamamidopent-4-ynamide], for which inhibition was half-maximal at 10700 ± 7340 nM (IC50).

`O=C(/C=C/c1ccccc1)N[C@@H](CC1CCCCC1)C(=O)N[C@@H](C[C@@H]1CCNC1=O)C(=O)C(=O)NCc1ccccc1` [11r, (S)-N-benzyl-3-((S)-2-cinnamamido-3-cyclohexylpropanamido)-2-oxo-4-((S)-2-oxopyrrolidin-3-yl)butanamide]: the IC50 amounted to 710 ± 360 nM. Take `O=C(/C=C/c1ccccc1)N[C@@H](CC1CCCC1)C(=O)N[C@@H](C[C@@H]1CCNC1=O)C(=O)C(=O)NCc1ccccc1` [11u, (S)-N-benzyl-3-((S)-2-cinnamamido-3-cyclopentylpropanamido)-2-oxo-4-((S)-2-oxopyrrolidin-3-yl)butanamide]: 1270 ± 340 nM corresponded to half-maximal inhibition (IC50). With `O=C(/C=C/c1ccccc1)N[C@@H](Cc1ccc(F)cc1)C(=O)N[C@@H](C[C@@H]1CCNC1=O)C(=O)C(=O)NCc1ccccc1` [11m, (S)-N-benzyl-3-((S)-2-cinnamamido-3-(4-fluorophenyl)propanamido)-2-oxo-4-((S)-2-oxopyrrolidin-3-yl)butanamide] the figure was over 50000 nM; with `O=C(/C=C/c1ccccc1)N[C@@H](Cc1ccccc1)C(=O)N[C@@H](C[C@@H]1CCNC1=O)C(=O)C(=O)NCc1ccccc1` [11a, (S)-N-benzyl-3-((S)-2-cinnamamido-3-phenylpropanamido)-2-oxo-4-((S)-2-oxopyrrolidin-3-yl)butanamide], 1950 ± 240 nM; with `O=C(/C=C/c1ccccc1)N[C@@H](CC1CC1)C(=O)N[C@@H](C[C@@H]1CCNC1=O)C(=O)C(=O)NCc1ccccc1` [11s, (S)-N-benzyl-3-((S)-2-cinnamamido-3-cyclopropylpropanamido)-2-oxo-4-((S)-2-oxopyrrolidin-3-yl)butanamide], 240 ± 80 nM. Then `CCCC[C@H](NC(=O)/C=C/c1ccccc1)C(=O)N[C@@H](C[C@@H]1CCNC1=O)C(=O)C(=O)NCc1ccccc1` [11o, (S)-N-((S)-4-(benzylamino)-3,4-dioxo-1-((S)-2-oxopyrrolidin-3-yl)butan-2-yl)-2-cinnamamidohexanamide], with 8500 ± 3710 nM. With `O=C(/C=C/c1ccccc1)N[C@H](C(=O)N[C@@H](C[C@@H]1CCNC1=O)C(=O)C(=O)NCc1ccccc1)C1CC1` [11q, (S)-N-benzyl-3-((S)-2-cinnamamido-2-cyclopropylacetamido)-2-oxo-4-((S)-2-oxopyrrolidin-3-yl)butanamide], the IC50 turned out to be 6270 ± 2870 nM.

The molecule `CC(C)C[C@H](NC(=O)/C=C/c1ccccc1)C(=O)N[C@@H](C[C@@H]1CCNC1=O)C(=O)C(=O)NCc1ccccc1` [11n, (S)-N-((S)-4-(benzylamino)-3,4-dioxo-1-((S)-2-oxopyrrolidin-3-yl)butan-2-yl)-2-cinnamamido-4-methylpentanamide] registered an IC50 of 330 ± 40 nM.

`O=C(/C=C/c1ccccc1)N[C@@H](CC1CCC1)C(=O)N[C@@H](C[C@@H]1CCNC1=O)C(=O)C(=O)NCc1ccccc1` [11t, (S)-N-benzyl-3-((S)-2-cinnamamido-3-cyclobutylpropanamido)-2-oxo-4-((S)-2-oxopyrrolidin-3-yl)butanamide] yielded an IC50 of 1440 ± 400 nM.
